# Laboratory results published in US6716829B2, “Aldosterone antagonist and cyclooxygenase-2 inhibitor combination therapy to prevent or treat inflammation-related cardiovascular disorders” (Pharmacia Corporation, priority 2000, dated 2004).
# Several values for one entry are separate records, joined by “and”; a condition that tells them apart may be missing. Equal values may be shown once. Entries after “also recorded” stand apart in the source; their conditions may differ.
# Experiments:
# [1] = tested on: angiotensin II infused rats; assay: Assay A, angiotensin II infusion model: systolic blood pressure by tail-cuff; format: in vivo, Male Wistar rats; conditions: angiotensin II 25 ng/min sc, 1% NaCl; eplerenone 100 mpk; aldosterone in adrenalectomized rats; 4 weeks
# Protocol: Human cardiovascular disorders are complex conditions, often initiated by vascular hypertension or a myocardial infarction (MI). In order to determine the probable effectiveness of a therapy for cardiovascular disorders, it is important to determine the potency of components in several assays. Accordingly, in Assay “A”, the efficacy of the aldosterone antagonist epeplerenone (epoxymexrenone) was determined in a hypertensive rat model with vascular inflammation, using angiotensin II infusion. In Assay “B” a study is described evaluating the efficacy of the aldosterone antagonist epeplerenone (epoxymexrenone) in a rat model using aldosterone infusion to produce hypertension with vascular inflammation. In Assay “C” a further study is described evaluating the efficacy of the aldosterone antagonist epeplerenone (epoxymexrenone) in a rat model using aldosterone infusion to produce hypertension with vascular inflammation.
# Assay A: In Vivo Angiotensin II Infusion Model
# Male Wistar rats (n=50, 10/group; BW=200 g)
# SBP measured by tail-cuff every week
# [2] = tested on: aldosterone + salt treated uninephrectomized rats; assay: Assay C, further aldosterone infusion study: radiotelemetrized arterial (systolic) blood pressure; format: in vivo, Male Sprague-Dawley rats; conditions: for Systolic Blood Pressure (mmHg): mean ± SEM of values every 5 min over 24-hour period
# Protocol: Assay C: Further In Vivo Aldosterone Infusion Study
# The procedure of Assay B was expanded upon in a further study. […] Myocardial tissue from animals in each treatment group was examined after 7, 14, or 30 days of treatment.
# Male Sprague-Dawley rats, weighing 230 to 250 g, (Harlan Sprague-Dawley Industries, Indianapolis, IN) were housed in a room 12-hours light/12-hours dark daily cycle at an ambient temperature of 22±1° C. (n=96). Animals were allowed one week to adjust after arrival and had free access to TEKLAD 22/5 rodent diet (Harlan TEKLAD, Madison, Wis.) and tap water until the initiation of the experiment.
# Potassium chloride supplementation was added to the saline solution in order to prevent the potential hypokalemia associated with aldosterone excess.
# At the time of the surgery, an Alzet 2002 osmotic minipump (Alza Corp., Palo Alto, Calif.) containing either vehicle (9% ethanol/87% propylene glycol/4% dH2O) or 1.0 mg/mL d-aldosterone (Sigma Chemical, St. Louis, Mo.) was inserted subcutaneously at the nape of the neck. Aldosterone was administered at a dose of 0.75 µg/hour. […] Animals were sacrificed from each group (n=8-13) after 7, 14, or 30 days of treatment.
# Animals to be sacrificed after 7 or 14 days of treatment were uninephrectomized and implanted with an Alzet minipump. Animals treated for 30 days were uninephrectomized, fitted for Alzet minipumps, and implanted with radio telemetry units (model #TA11PA-C40, Data Sciences Inc., St. Paul, Minn.) according to the following procedure. Animals were anesthetized with 5% isoflurane (SOLVAY Animal Health Inc., Mendota Heights, Minn.), which was delivered in O2 using a VMS anesthesia instrument (Matrix Medical, Inc., Orchard Park, N.Y.). Anesthesia was maintained with 1-2% isoflurane throughout the surgical procedure. The surgery site was clipped, scrubbed with nolvasan, and sprayed with betadine. A rostral-caudal incision was made through the skin from the base of the rib cage to the pubic region using a #11 scalpel blade. A second incision was made through the muscles of the abdominal wall to expose the peritoneal cavity. The […], renal artery and vein of the left kidney were isolated, tied off with 4-0 silk, and the kidney excised and discarded. Organs were carefully displaced with tissue retractors in order to expose the abdominal aorta. A 1.5 cm segment just rostral to the bifurcation of the abdominal aorta into the iliac arteries was cleared of excessive connective tissue and 4-0 silk was used to make an anchor adjacent to the aorta. A microvascular clip was then placed at both ends of the cleaned region to stop excessive blood flow. Using a bent, 21 gauge needle, the abdominal aorta was penetrated. The cannula of the radio telemetry unit was inserted and stabilized in the aorta using the 4-0 silk anchor. Organs were repositioned and the telemetry unit was placed over the organs. Using a non-interrupted suture pattern with 4-0 silk, the abdominal wall was closed, and the skin was subsequently closed using a 4-0 silk in an interrupted suture pattern. Animals were injected around the sutures with 100 μL of the anesthetic Marcaine HCl (Sanofi Winthrop Pharmaceuticals, New York, N.Y.) and given an injection (i.m.) of the antibiotic Mandol (Eli Lilly & Co., Indianapolis, Ind.). Post-operative care included monitoring the animals on a heating pad during recovery from anesthesia until sternal recumbency was reestablished. Animals were monitored daily for signs of distress and infection at the surgical site. Animals displaying continued discomfort after surgery were treated with 0.1-0.5 mg/kg, s.c. Buphrenorphine (Rickett & Colman Pharmaceuticals, Inc. Richmond, Va.). Animals were then placed on tap water and TEKLAD 22/5 rodent diet (Harlan TEKLAD, Madison, Wis.).
# Radiotelemetrized arterial blood pressure was calculated with the […]
structure (smiles),measurement,setting,value
C[C@]12CCC(=O)C=C1CC[C@@H]1[C@@H]2[C@@H](O)C[C@]2(C=O)[C@@H](C(=O)CO)CC[C@@H]12 [Aldosterone],Systolic Blood Pressure,[1],increased blood pressure
same,Systolic Blood Pressure,"[2]; Day 3, individual rats, 30-day protocol, listed as Aldosterone + salt",116 mmHg and 152 mmHg and 115 mmHg and 127 mmHg and 143 mmHg and 122 mmHg and 124 mmHg and 159 mmHg
same,Systolic Blood Pressure (mmHg),[2]; Day 3,132 ± 6 mmHg
same,Systolic Blood Pressure,"[2]; Day 4, individual rats, 30-day protocol, listed as Aldosterone + salt",120 mmHg and 149 mmHg and 122 mmHg and 134 mmHg and 129 mmHg and 135 mmHg and 125 mmHg and 152 mmHg
same,Systolic Blood Pressure (mmHg),[2]; Day 4,133 ± 4 mmHg
same,Systolic Blood Pressure,"[2]; Day 5, individual rats, 30-day protocol, listed as Aldosterone + salt",126 mmHg and 158 mmHg and 124 mmHg and 142 mmHg and 129 mmHg and 137 mmHg and 128 mmHg and 151 mmHg
same,Systolic Blood Pressure (mmHg),[2]; Day 5,137 ± 4 mmHg
same,Systolic Blood Pressure,"[2]; Day 6, individual rats, 30-day protocol, listed as Aldosterone + salt",132 mmHg and 170 mmHg and 136 mmHg and 157 mmHg and 144 mmHg and 149 mmHg and 135 mmHg and 158 mmHg
same,Systolic Blood Pressure (mmHg),[2]; Day 6,148 ± 5 mmHg
same,Systolic Blood Pressure,"[2]; Day 7, individual rats, 30-day protocol, listed as Aldosterone + salt",140 mmHg and 179 mmHg and 139 mmHg and 165 mmHg (2×) and 153 mmHg and 154 mmHg and 145 mmHg
same,Systolic Blood Pressure (mmHg),[2]; Day 7,155 ± 5 mmHg
same,Systolic Blood Pressure,"[2]; Day 8, individual rats, 30-day protocol, listed as Aldosterone + salt",145 mmHg and 182 mmHg and 143 mmHg and 160 mmHg and 158 mmHg and 154 mmHg and 146 mmHg and 163 mmHg
same,Systolic Blood Pressure (mmHg),[2]; Day 8,156 ± 4 mmHg
same,Systolic Blood Pressure,"[2]; Day 9, individual rats, 30-day protocol, listed as Aldosterone + salt",150 mmHg and 191 mmHg and 148 mmHg and 172 mmHg (2×) and 159 mmHg and 151 mmHg and 169 mmHg
same,Systolic Blood Pressure (mmHg),[2]; Day 9,164 ± 5 mmHg
same,Systolic Blood Pressure,"[2]; Day 10, individual rats, 30-day protocol, listed as Aldosterone + salt",156 mmHg and 196 mmHg and 149 mmHg and 175 mmHg (2×) and 165 mmHg and 151 mmHg and 172 mmHg
same,Systolic Blood Pressure (mmHg),[2]; Day 10,168 ± 6 mmHg
same,Systolic Blood Pressure,"[2]; Day 11, individual rats, 30-day protocol, listed as Aldosterone + salt",154 mmHg and 201 mmHg and 155 mmHg (2×) and 178 mmHg and 181 mmHg and 163 mmHg and 175 mmHg
same,Systolic Blood Pressure (mmHg),[2]; Day 11,171 ± 6 mmHg
same,Systolic Blood Pressure,"[2]; Day 12, individual rats, 30-day protocol, listed as Aldosterone + salt",159 mmHg and 207 mmHg and 161 mmHg and 190 mmHg (2×) and 186 mmHg and 170 mmHg and 163 mmHg
same,Systolic Blood Pressure (mmHg),[2]; Day 12,178 ± 6 mmHg
same,Systolic Blood Pressure,"[2]; Day 13, individual rats, 30-day protocol, listed as Aldosterone + salt",161 mmHg and 210 mmHg and 166 mmHg (2×) and 196 mmHg and 191 mmHg and 172 mmHg and 194 mmHg
same,Systolic Blood Pressure (mmHg),[2]; Day 13,182 ± 6 mmHg
same,Systolic Blood Pressure,"[2]; Day 14, individual rats, 30-day protocol, listed as Aldosterone + salt",164 mmHg and 208 mmHg and 170 mmHg and 204 mmHg and 192 mmHg (2×) and 181 mmHg and 159 mmHg and 172 mmHg
same,Systolic Blood Pressure (mmHg),[2]; Day 14,182 ± 6 mmHg
same,Systolic Blood Pressure,"[2]; Day 15, individual rats, 30-day protocol, listed as Aldosterone + salt",171 mmHg
same,Systolic Blood Pressure (mmHg),[2]; Day 15,181 ± 5 mmHg
same,Systolic Blood Pressure (mmHg),[2]; Day 16,187 ± 6 mmHg
same,Systolic Blood Pressure (mmHg),[2]; Day 17,195 ± 7 mmHg
same,Systolic Blood Pressure (mmHg),[2]; Day 18,196 ± 6 mmHg
same,Systolic Blood Pressure (mmHg),[2]; Day 19,200 ± 6 mmHg
same,Systolic Blood Pressure (mmHg),[2]; Day 20,203 ± 5 mmHg
same,Systolic Blood Pressure (mmHg),[2]; Day 21,208 ± 4 mmHg
same,Systolic Blood Pressure (mmHg),[2]; Day 22,209 ± 4 mmHg
same,Systolic Blood Pressure (mmHg),[2]; Day 23,208 ± 4 mmHg
same,Systolic Blood Pressure (mmHg),[2]; Day 24,210 ± 3 mmHg
same,Systolic Blood Pressure (mmHg),[2]; Day 25,210 ± 4 mmHg
same,Systolic Blood Pressure (mmHg),[2]; Day 26,210 ± 3 mmHg
same,Systolic Blood Pressure,"[2]; aldosterone + salt, uninephrectomized rats, up to 30 days, eplerenone 100 mg/kg/day",induced severe hypertension; also recorded: progressive increase in blood pressure with time
